# Laboratory results as given in patent publication US20160000750A1, “COMBINATION OF EGCG OR METHYLATED EGCG AND A PDE INHIBITOR” (KYUSHU UNIVERSITY, NATIONAL UNIVERSITY CORPORATION, priority 2010, published 2016).
# How the values were obtained:
# [1] = system: Toll-like receptor (TLR) 2; assay: TLR2 expression in RAW 264.7 by Western blotting; assay type: cell-based, mouse; settings: vardenafil 5 μM, EGCG 10 μM added after 3 hours, 24 hours, untreated = 100
# Procedure: (§1) A mouse macrophage cell line, RAW 264.7, was seeded in a 5-mL dish at 1×10^5 cells/mL and was pre-cultured in a DMEM medium supplemented with 1% FCS for 24 hours. Subsequently, vardenafil was added thereto at a concentration of 5 μM. After 3 hours, EGCG was added thereto at a concentration of 0 μM or 10 μM. After 24 hours, the cells were collected, and the expressions of Toll-like receptor (TLR) 2 and TLR 4 were measured by Western blotting.
# TLR 4 = assay: TLR4 expression in RAW 264.7 by Western blotting; assay type: cell-based, mouse; settings: vardenafil 5 μM, EGCG 10 μM added after 3 hours, 24 hours, untreated = 100
# Procedure: as §1
compound,measurement,setting,value
CCCc1nc(C)c2c(=O)[nH]c(-c3cc(S(=O)(=O)N4CCN(CC)CC4)ccc3OCC)nn12 [vardenafil],TLR2 expression level(%),[1],112%
same,TLR4 expression level(%),TLR 4,112%
